Experimental findings from patent publication US10954269B2, “Anti-inflammatory tripeptides” (Dr. August Wolff Gmbh & Co. KG Arzneimittel, priority 2013, dated 2021) are described below.

One may read the amount remaining as what is left of the initial amount, in per cent. Lower therefore signals more turnover.

One series in a line: in vitro. As to conditions: human, tissue homogenate, % of the starting concentration.
For series [1] the following is noted: human, tissue homogenate, 1000 min, 160 μg/ml.
Protocol: (§4) Human skin samples (ear skin, umbilical skin and juvenile foreskin) are combined and frozen in liquid nitrogen and homogenized. The resulting human skin homogenate is transferred portionwise (50-70 mg) to Protein LoBind Tubes (2 ml) and stored at −32° C. until use. At the beginning of the stability study the human skin homogenate is thawed. An aqueous solution of the tripeptide compound (1500 μl) with or without 0.02% sodium azide (cpeptide=160 μg/ml) is added and the mixture is incubated at 32° C. Samples were taken at 0, 30, 100, 300 and 1000 minutes. 100 μl sample are diluted with 1900 μl methanol containing an internal standard and analyzed with HPLC-MS. All analyses are performed in triplicate.
Another series relates to primary murine T cells. The series is described as follows: Gene expression of pro-inflammatory cytokines (RT-qPCR) in primary murine T cells. It is filed as cell-based, C57BL/6 mice. Particulars: PMA/Ionomycin, 10^−7 M, 10^−9 M and 10^−11 M. The source says: (§1) Cells were activated with PMA/Ionomycin and treated with PBS, α-MSH, K(D)PT and Examples 3, 8 and 9, respectively, at a concentration of 10^−9 M. Values are normalized to β-actin and are shown relative to the gene expression in PBS-stimulated cells.
(§2) Primary T-cells were isolated from peripheral blood from healthy volunteers and from secondary lymphatic organs from naïve C57BL/6 mice, respectively. The cells were stimulated with phorbol-12-myristate-13-acetate (PMA)/Ionomycin and interferon-gamma (IFN-γ), respectively, for 48 h to activate the cells. The activated cells release pro-inflammatory cytokines. In parallel a human (HaCaT) keratinocyte cell line was activated with PMA/Ionomycin and IFN-γ, respectively, too. […] At the same time release of anti-inflammatory IL-10 was inhibited. Two days after addition of PMA/Ionomycin and IFN-γ, respectively, the induction of IL-1 secretion was determined in the supernatant for proving that the cells are activated. […] The anti-inflammatory properties of the tripeptides were determined 48 h and 72 h following stimulation. A 13-plex-system based FACS analysis was used for showing the reduced secretion of pro-inflammatory cytokines in the supernatant. Data for IL-1, IL-2, IL-6, IL-12p70 IL-17, IFN-γ and TNF-α are considered to be most relevant. Thus, analysis of the anti-inflammatory properties of the tripeptides is preferably based on the results obtained for these analytes. […] Using this method the gene expression of pro-inflammatory markers like IL-6, IL-17, IFN-γ and TNF-α was determined.
(§3) In a third experiment murine and human T cells and HaCaT cells were stimulated with PMA/Ionomycin and treated with Examples 14, 15, 16 and 17 at 10^−7 M, 10^−9 M and 10^−11 M. Cytokine concentrations (IFN-γ, IL-17 and IL-10 for T cells and IFN-γ for HaCat) were assessed in the supernatants using the Luminex technology. Expression of genes coding for Il-1β, IL-6 and TNF-α was determined. […] Moreover, concentrations of pro-inflammatory cytokines IFN-γ and IL-17 was reduced in the supernatants whereas the concentration of anti-inflammatory cytokine IL-10 was increased.
A general note: Real-time PCR tracks product formation cycle by cycle.

Series [2] relates to human keratinocytes (HaCaT). The series is described as follows: Gene expression of pro-inflammatory cytokines (RT-qPCR) in human keratinocytes (HaCaT). It is filed as cell-based. As to conditions: HaCaT cells; PMA/Ionomycin; 10^−7 M, 10^−9 M and 10^−11 M.
From the text: as §1, §2, §3

A further series relates to primary murine T-cells. The series is described as follows: Cytokine secretion on protein level in activated primary murine T-cells (13-plex FACS / Luminex, supernatant). As to conditions: murine T cells; PMA/Ionomycin; Luminex; all tested concentrations. It is filed as cell-based, C57BL/6 mice. Summed up: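 T-cells from secondary lymphatic organs of naïve C57BL/6 mice, stimulated with PMA/Ionomycin or IFN-γ; supernatant cytokines measured by 13-plex FACS 48 h and 72 h after stimulation. In another run, PMA/Ionomycin-stimulated cells received compounds at 10^−7, 10^−9 and 10^−11 M, with IFN-γ, IL-17 and IL-10 measured by Luminex.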

The next series concerns Balb/c mice. The series is described as follows: Imiquimod-induced psoriasis in mice. As to conditions: i.v.; for mRNA expression of IFN-γ and IL-36 in lesional skin: compared to vehicle control; for clinical score: day 9. The format is in vivo. As to the method:
Psoriasis in Balb/c mice is induced by daily application of topical Imiquimod for 8 days. Animal are treated with the test items (topical or systemically). On day 9 the skin phenotype is characterized using a clinical score system (0=normal mouse skin; 1=mild reddening; 2=erythema; 3=erythema, swelling; 4=erythema, swelling, scaling; 5=erythema, swelling, scaling, (bloody) lesions). Skin is analyzed histologically. Lymph nodes are analyzed by flow cytometry and RT-qPCR. mRNA expression in lesional skin is analyzed by RT-qPCR. Cytokine concentrations in the serum are assessed using the Luminex technology.

In the next series the test system is primary human T cells. The series is described as follows: Gene expression of pro-inflammatory cytokines (RT-qPCR) in primary human T cells. The format is cell-based. As to conditions: PMA/Ionomycin, 10^−7 M, 10^−9 M and 10^−11 M.
From the text: as §1, §2, §3

A further series concerns primary human T-cells. The series is described as follows: Cytokine secretion on protein level in activated primary human T-cells (13-plex FACS / Luminex, supernatant). The format is cell-based. As to conditions: human T cells; PMA/Ionomycin; Luminex; all tested concentrations. Summed up:
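Primary T-cells from peripheral blood of healthy volunteers, or HaCaT cells, were activated with PMA/Ionomycin or IFN-γ for 48 h and treated with tripeptides. Supernatants were collected 48 h and 72 h after stimulation and cytokines (IL-1, IL-2, IL-6, IL-12p70, IL-17, IFN-γ, TNF-α) were measured by 13-plex FACS.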

In series [3] the test system is human keratinocyte cell line (HaCaT). The series is described as follows: Cytokine secretion on protein level in activated human keratinocyte cell line HaCaT (13-plex FACS / Luminex, supernatant). As to conditions: HaCaT; PMA/Ionomycin; Luminex; all tested concentrations. The format is cell-based. Summed up:
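Cytokine protein in supernatant is read by multiplex FACS or Luminex. Tripeptide-treated HaCaT cells or blood-derived human T-cells are stimulated beforehand with PMA/Ionomycin or IFN-γ. The most relevant analytes are IL-1, IL-2, IL-6, IL-12p70, IL-17, IFN-γ and TNF-α, sampled 48 h and 72 h after stimulation.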

Where a SMILES comes first, the peptide text is derived from it. [ ]: non-standard residue; d: D form. Tle = CC(C)(C)[C@H](N)C(=O)O; Aib = CC(C)(N)C(=O)O

Protocol for in vitro: as §4

`CC(C)(NC(=O)[C@@H]1CCCN1C(=O)[C@@H](N)CCCCN)C(=O)O` [Example 8, H-(L)-Lys-(L)-Pro-Aib-OH] (H-Lys-Pro-[Aib]-OH): the share remaining at 1000 min, 160 μg/ml in the series “in vitro” is 40%. Further, the “% of the starting concentration” value in [1] came to 47%.

Turning to `CC(C)(C)[C@H](NC(=O)[C@@H]1CCCN1C(=O)[C@@H](N)CCCCN)C(=O)O` [Example 9, H-(L)-Lys-(L)-Pro-(L)-t-butyl-Gly-OH] (H-Lys-Pro-[Tle]-OH), in the series “in vitro”, the amount remaining at 5 h, 160 μg/ml was 58%.

H-[dF]-Pro-[Aib]-OH [Example 15]: the “expression of pro-inflammatory cytokines IL-1β, IL-6 and TNF-α on mRNA level” value (shortened to “expression … on mRNA level”) in the series on primary murine T cells is “reduced expression”. Moreover, the “expression … on mRNA level” value in [2] is recorded as “reduced expression”. For the same molecule, in the series on primary murine T-cells, the “concentration of anti-inflammatory cytokine IL-10 in the supernatants” value was “increased”; the “concentrations of pro-inflammatory cytokines IFN-γ and IL-17 in the supernatants” value (“concentrations … in the supernatants” for short) is “reduced”. For the same molecule, in the series with Balb/c mice, the “concentrations of TNF-α and IL-17 in the serum” value (“concentrations … in the serum” below) was “reduced”; the epidermal thickness entry is “reduced”; the “mRNA expression of IFN-γ and IL-36 in lesional skin” value (“mRNA expression” for short) is reported as “reduced”; the clinical score entry is given as “reduced”. Further, in the series with primary human T cells, the “expression … on mRNA level” value is reported as “reduced expression”. Moreover, in the series on primary human T-cells, the “concentration of anti-inflammatory cytokine IL-10 in the supernatants” value is listed as “increased”; the “concentrations … in the supernatants” value is on record as “reduced”. The “concentration of pro-inflammatory cytokine IFN-γ in the supernatants” value in series [3] was “reduced”.

For “N^α,N^α-dimethyl-(L)-Nle-(L)-Pro-Aib-OH [Example 16]”, in the series with primary murine T cells, the “expression … on mRNA level” value was “reduced expression”. In series [2], the “expression … on mRNA level” value is reported as “reduced expression”. Further, in the series with primary murine T-cells, the “concentration of anti-inflammatory cytokine IL-10 in the supernatants” value is reported as “increased”; the “concentrations … in the supernatants” value was “reduced”. Further, in the series on Balb/c mice, the “concentrations … in the serum” value is on record as “reduced”; the epidermal thickness result is “reduced”; the “mRNA expression” value was “reduced”; the clinical score result was “reduced”. Further, the “expression … on mRNA level” value in the series with primary human T cells is “reduced expression”. Besides, in the series with primary human T-cells, the “concentration of anti-inflammatory cytokine IL-10 in the supernatants” value is listed as “increased”; the “concentrations … in the supernatants” value was “reduced”. Besides, the “concentration of pro-inflammatory cytokine IFN-γ in the supernatants” value in [3] is reported as “reduced”.

Turning to “N^α,N^α-dimethyl-(L)-Phe-(t)-Pro-Aib-OH [Example 17]”, the “expression … on mRNA level” value in the series on primary murine T cells is listed as “reduced expression”. Further, in [2], the “expression … on mRNA level” value was “reduced expression”. In addition, in the series with primary murine T-cells, the “concentration of anti-inflammatory cytokine IL-10 in the supernatants” value is “increased”; the “concentrations … in the supernatants” value is “reduced”. In the series on Balb/c mice, the “concentrations … in the serum” value was “reduced”; the epidermal thickness result was “reduced”; the “mRNA expression” value is recorded as “reduced”; the clinical score result was “reduced”. For the same molecule, the “expression … on mRNA level” value in the series with primary human T cells was “reduced expression”. In the series with primary human T-cells, the “concentration of anti-inflammatory cytokine IL-10 in the supernatants” value is “increased”; the “concentrations … in the supernatants” value is “reduced”. The “concentration of pro-inflammatory cytokine IFN-γ in the supernatants” value in [3] is recorded as “reduced”.

“N^α-methyl-(D)-Phe-(L)-Pro-Aib-OH [Example 14]”: the “expression … on mRNA level” value with primary murine T cells is “reduced expression”. For the same molecule, the “expression … on mRNA level” value in [2] is listed as “reduced expression”. Also, in the series on primary murine T-cells, the “concentration of anti-inflammatory cytokine IL-10 in the supernatants” value was “increased”; the “concentrations … in the supernatants” value is given as “reduced”. For the same molecule, in the series on Balb/c mice, the “concentrations … in the serum” value is listed as “reduced”; the epidermal thickness entry is on record as “reduced”; the “mRNA expression” value is “reduced”; the clinical score entry is reported as “reduced”. Further, the “expression … on mRNA level” value with primary human T cells is on record as “reduced expression”. Also, in the series on primary human T-cells, the “concentration of anti-inflammatory cytokine IL-10 in the supernatants” value is on record as “increased”; the “concentrations … in the supernatants” value is given as “reduced”. Also, in series [3], the “concentration of pro-inflammatory cytokine IFN-γ in the supernatants” value was “reduced”.
